From patent US20250263370A1 (Tay Therapeutics Limited, priority 2022, published 2025) come the findings set out here.

Values joined by “and” are separate entries in the source; they are usually repeats but may differ in a detail not shown here. Equal entries are not always repeated. Where two headings read alike, the source gives them in different places.

Data set [1] can be described thus: Plasma stability assay, human plasma. Type of data set: in vitro ADME. To be noted: Method 1 (5 μM). Here is the method: (§1) From stock solution of compound in 10 mM DMSO, a working solution of 1 mM is prepared by diluting the compound in DMSO. To 398 μL of plasma pre-warmed at 37° C. for 15 minutes), 2 μL of working solution of compound is added, resulting in a final concentration of 5 μM (0.5% DMSO) for the compound. The sample is then incubated at 37° C. Aliquot is withdrawn at specified time-points (0, 15, 30, 60 and 120 mins). The reaction is stopped by addition of 450 μL cold acetonitrile containing internal standard (IS). […] Aliquots of the supernatant is analysed using LC-MS/MS. The percent remaining of the compound at each time point is calculated with respect to the control sample (0 min time-point).
(§2) A working solution of compound (500 μM) is prepared in DMSO (100%). To 735 μL of plasma, 15 μL of working solution of compound is added—resulting in a final concentration of 10 μM (2% DMSO) for the compound. The sample is then incubated at 37° C. Aliquot is withdrawn at time-points—0, 15, 30, 60, 90 and 120 mins. The reaction is stopped by using chilled acetonitrile containing internal standard (IS). The samples are centrifuged and the supernatants analyzed using LC-MS/MS. The percent remaining of the compound at each time point is calculated with respect to the control sample (0 min time-point).

Data set [2] can be described thus: Plasma concentration of Example 101 in UUO rats by LC-MS/MS. Type of data set: in vivo, rat. To be noted: for concentration at 4 h: rat, plasma, po, 30 mg/kg. The text has this:
Serum for blood biochemistry analysis was collected into centrifuge tubes without coagulant four hours after final dosing. Blood plasma samples from group 3 was collected into tubes with K2EDTA four hours after final dosing. At the conclusion of the study (end of the 14-day period), animals were euthanized. Kidney tissue was collected four hours after final dosing. Ligated side kidney was divided into three copies ⅓ fix into 10% formalin for H&E analysis, ⅓ into RNA for PCR analysis of tissue biomarkers Col1a1, TGF-b1, MCP-1, IL-1b, IL-6, IL-17, TNF-a, and Timp1, and ⅓ for hydroxyproline assay analyzed by ELISA. RNA was extracted from tissue using the RNeasy mini kit (Qiagen). RNA concentration was measured using a NanoDrop One Spectrophotometer (ThermoFisher) and converted to cDNA using a High-Capacity RNA-to-cDNA kit (Invitrogen). RT-PCR was performed to measure levels of mRNA of different targets using TaqMan® Gene Expression Master Mix and TaqMan® probe/primer sets on a QuantStudio 6, Real-Time PCR System (ThermoFisher). Fold change in target gene expression was determined using the ΔΔCt method.
Samples were analyzed on a Raptor Biphenyl 2.7 μm 50×2.1 mm column. Solution A in the mobile phase was 95% water (0.1% formic acid) and solution B was 95% acetonitrile in water (0.1% formic acid), injection volume was 20 μL, and flow rate was 0.5 mL/min.
To prepare samples for analysis, serial concentrations were prepared by diluting the stock solution of analyte with a 50% acetonitrile in water solution. 5 μL working solutions (5, 10, 20, 50, 100, 500, 1000, 5000, and 10000 ng/mL) were added to 50 μL of the blank SD rat plasma to achieve calibration standards of −0.5 to 1000 ng/mL (0.5, 1, 2, 5, 10, 50, 100, 500, and 1000 ng/mL) in a total volume of 55 μL. […]
55 μL of standards, 55 μL of QC samples and 55 μL of unknown samples (50 μL of unknown rat plasma with 5 μL of blank solution) were added to 200 μL of acetonitrile containing IS mixture for precipitating protein respectively. […] 20 μL of diluted supernatant was injected into the LC/MS/MS system for quantitative analysis.

Data set [3] can be described thus: Plasma stability assay, mouse plasma. To be noted: Method 1 (5 μM). Type of data set: in vitro ADME. Here is the method: as §1, §2

Take `CNC(=O)c1[nH]c(C(=O)NC2CCC2)cc1O[C@@H](C)c1ccccc1` (stereo in doubt) [Example 101, N^5-cyclobutyl-N^2-methyl-3-(1-phenylethoxy)-1H-pyrrole-2,5-dicarboxamide]: in data set [1], the “Plasma Stability (% remaining at 120 minutes), Human” value is 93%. Further, the “Plasma concentration of Example 101” value in data set [2] (male SD rats, oral, 4 h after final treatment, individual test subjects) is 485 ng/mL and 959 ng/mL and 760 ng/mL and 859 ng/mL and 906 ng/mL and 1160 ng/mL and 665 ng/mL and 941 ng/mL. Further, the concentration at 4 h in data set [2] (male, SD, Mean plasma concentration of Example 101, male SD rats, oral, 4 h after final treatment, mean of 8 subjects) stood at 846 ng/mL; in data set [2] (UUO rats, 30 mg/kg oral, four hours after final treatment, read-out: mean plasma concentration) it was 846 ng/mL. In addition, the “Plasma Stability (% remaining at 120 minutes), Mouse” value in data set [3] was greater than 99%.
